Data published in PMC11606603, “The membrane domains of mammalian adenylyl cyclases are lipid receptors” (eLife, 2024).
Values joined by “and” are separate entries in the source; they are usually repeats but may differ in a detail not shown here. Equal values may be shown once. “Also recorded” adds a separate entry of the source.

Legend:
Assay type in all cases: biochemical
mAC5 = biological target: T1, mAC5 (Homo sapiens, UniProt O95622); test: AC assay, Gsα-stimulated mAC5 in membranes from transfected HEK293 cells
T1 construct: Human mAC genes were from GenScript and fitted with a C-terminal FLAG-tag; FLAG (C); made in house; host or cells: HEK293, permanently transfected; membrane preparation
Outline: (§1)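 Adenylyl cyclase activity was measured in 100,000 × g membrane fractions prepared from HEK293 cells permanently transfected with C-terminally FLAG-tagged human AC isoforms. Assays contained 1 mM ATP and 2 mM MgCl2 with an ATP-regenerating system at pH 7.5.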

mAC4 = biological target: T2, mAC4 (Homo sapiens, UniProt Q8NFM4); test: AC assay, Gsα-stimulated mAC4 in membranes from transfected HEK293 cells; conditions: 20 µM fatty acid; 300 nM Gsα; single experiments
T2 construct: Human mAC genes were from GenScript and fitted with a C-terminal FLAG-tag; FLAG (C); made in house; host or cells: HEK293, permanently transfected; membrane preparation
T2 sequence (Q8NFM4 1-1077): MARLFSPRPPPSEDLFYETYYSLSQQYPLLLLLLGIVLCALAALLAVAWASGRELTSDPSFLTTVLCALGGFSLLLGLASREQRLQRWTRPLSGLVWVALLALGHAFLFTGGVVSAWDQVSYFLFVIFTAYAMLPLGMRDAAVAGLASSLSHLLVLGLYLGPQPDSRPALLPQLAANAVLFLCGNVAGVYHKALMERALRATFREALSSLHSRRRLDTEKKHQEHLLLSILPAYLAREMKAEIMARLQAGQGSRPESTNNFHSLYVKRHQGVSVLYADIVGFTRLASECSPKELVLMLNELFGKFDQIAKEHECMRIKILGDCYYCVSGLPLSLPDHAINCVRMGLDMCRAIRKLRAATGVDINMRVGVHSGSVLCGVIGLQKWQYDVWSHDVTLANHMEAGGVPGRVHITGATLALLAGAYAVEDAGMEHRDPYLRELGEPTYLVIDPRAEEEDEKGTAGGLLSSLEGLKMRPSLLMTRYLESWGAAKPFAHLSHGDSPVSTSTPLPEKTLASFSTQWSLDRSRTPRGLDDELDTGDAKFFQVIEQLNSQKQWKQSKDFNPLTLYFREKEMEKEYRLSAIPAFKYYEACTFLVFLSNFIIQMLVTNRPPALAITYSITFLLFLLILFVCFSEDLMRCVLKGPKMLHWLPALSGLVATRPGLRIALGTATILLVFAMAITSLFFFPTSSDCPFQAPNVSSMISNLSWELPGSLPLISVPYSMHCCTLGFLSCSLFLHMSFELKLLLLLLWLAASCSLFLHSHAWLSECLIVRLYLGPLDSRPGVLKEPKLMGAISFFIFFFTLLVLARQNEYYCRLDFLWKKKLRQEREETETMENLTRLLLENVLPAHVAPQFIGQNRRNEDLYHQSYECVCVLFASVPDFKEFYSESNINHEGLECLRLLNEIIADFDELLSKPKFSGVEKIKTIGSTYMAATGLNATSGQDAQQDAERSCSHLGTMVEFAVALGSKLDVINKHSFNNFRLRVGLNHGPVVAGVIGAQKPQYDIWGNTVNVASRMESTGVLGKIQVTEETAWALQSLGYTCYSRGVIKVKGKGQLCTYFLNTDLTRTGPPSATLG
Outline: as §1

mAC8 = biological target: T3, mAC8 (Homo sapiens, UniProt P40145); test: AC assay, Gsα-stimulated mAC8 in membranes from transfected HEK293 cells; conditions: 20µM fatty acid concentration
T3 construct: Human mAC genes were from GenScript and fitted with a C-terminal FLAG-tag; FLAG (C); made in house; host or cells: HEK293, permanently transfected; membrane preparation
Outline: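 cAMP detected with a Cisbio kit, calibrated by a cAMP standard curve each run. Reaction: 1 mM ATP, 2 mM MgCl2, 3 mM creatine phosphate, 60 μg/ml creatine kinase, 50 mM MOPS pH 7.5. Enzyme source: membranes of stably transfected HEK293 (G418-selected) carrying FLAG-tagged human AC.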

mAC3 = biological target: T4, mAC3 (Homo sapiens, UniProt O60266); test: AC assay, Gsα-stimulated mAC3 in membranes from transfected HEK293 cells; conditions: for mAC3 activity [%] (100% = 300nM Gsα stimulation): individual experiments
T4 construct: Human mAC genes were from GenScript and fitted with a C-terminal FLAG-tag; FLAG (C); made in house; host or cells: HEK293, permanently transfected; membrane preparation
Outline: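 EC50 and IC50 values come from cAMP production, read with a Cisbio cAMP kit and converted via a standard curve. Assay mix held 1 mM ATP, 2 mM MgCl2, 3 mM creatine phosphate and 60 μg/ml creatine kinase in 50 mM MOPS pH 7.5, using transfected HEK293 membranes.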

mAC6 = biological target: T5, mAC6 (Homo sapiens, UniProt O43306); test: AC assay, Gsα-stimulated mAC6 in membranes from transfected HEK293 cells; conditions: 20µM fatty acid concentration
T5 construct: Human mAC genes were from GenScript and fitted with a C-terminal FLAG-tag; FLAG (C); made in house; host or cells: HEK293, permanently transfected; membrane preparation
Outline: as §1

T1 sequence (O95622 whole entry): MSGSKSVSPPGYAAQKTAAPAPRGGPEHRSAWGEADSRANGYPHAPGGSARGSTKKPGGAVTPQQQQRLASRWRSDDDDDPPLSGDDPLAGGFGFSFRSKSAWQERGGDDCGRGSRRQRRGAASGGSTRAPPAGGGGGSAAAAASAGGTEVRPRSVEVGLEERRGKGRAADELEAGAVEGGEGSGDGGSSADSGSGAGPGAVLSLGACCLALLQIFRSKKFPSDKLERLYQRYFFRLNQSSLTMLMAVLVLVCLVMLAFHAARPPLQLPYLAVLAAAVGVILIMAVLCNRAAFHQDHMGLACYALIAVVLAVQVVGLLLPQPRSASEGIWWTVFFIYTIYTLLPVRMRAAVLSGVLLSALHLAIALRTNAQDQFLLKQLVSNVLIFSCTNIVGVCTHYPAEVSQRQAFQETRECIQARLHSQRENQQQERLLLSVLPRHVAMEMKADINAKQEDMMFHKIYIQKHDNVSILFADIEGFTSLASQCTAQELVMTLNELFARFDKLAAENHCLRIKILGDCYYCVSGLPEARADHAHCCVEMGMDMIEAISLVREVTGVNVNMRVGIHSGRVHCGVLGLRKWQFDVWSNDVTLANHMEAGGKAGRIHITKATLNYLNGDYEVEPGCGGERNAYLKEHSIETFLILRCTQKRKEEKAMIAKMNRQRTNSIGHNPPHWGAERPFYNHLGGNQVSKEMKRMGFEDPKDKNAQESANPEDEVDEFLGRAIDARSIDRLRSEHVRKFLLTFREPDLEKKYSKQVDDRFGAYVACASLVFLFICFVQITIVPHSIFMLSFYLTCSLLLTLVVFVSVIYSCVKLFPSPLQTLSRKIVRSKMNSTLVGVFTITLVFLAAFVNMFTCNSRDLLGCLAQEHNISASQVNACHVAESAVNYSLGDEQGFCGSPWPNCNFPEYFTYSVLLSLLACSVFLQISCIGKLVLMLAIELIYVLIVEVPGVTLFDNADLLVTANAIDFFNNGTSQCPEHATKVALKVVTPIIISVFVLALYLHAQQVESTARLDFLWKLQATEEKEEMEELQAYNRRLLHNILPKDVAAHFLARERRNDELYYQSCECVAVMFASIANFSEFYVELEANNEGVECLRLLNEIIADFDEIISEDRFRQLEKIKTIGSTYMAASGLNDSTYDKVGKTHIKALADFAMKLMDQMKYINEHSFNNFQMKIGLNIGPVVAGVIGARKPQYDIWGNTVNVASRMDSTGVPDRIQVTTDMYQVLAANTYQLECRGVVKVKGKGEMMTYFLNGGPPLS
T5 sequence (O43306 whole entry): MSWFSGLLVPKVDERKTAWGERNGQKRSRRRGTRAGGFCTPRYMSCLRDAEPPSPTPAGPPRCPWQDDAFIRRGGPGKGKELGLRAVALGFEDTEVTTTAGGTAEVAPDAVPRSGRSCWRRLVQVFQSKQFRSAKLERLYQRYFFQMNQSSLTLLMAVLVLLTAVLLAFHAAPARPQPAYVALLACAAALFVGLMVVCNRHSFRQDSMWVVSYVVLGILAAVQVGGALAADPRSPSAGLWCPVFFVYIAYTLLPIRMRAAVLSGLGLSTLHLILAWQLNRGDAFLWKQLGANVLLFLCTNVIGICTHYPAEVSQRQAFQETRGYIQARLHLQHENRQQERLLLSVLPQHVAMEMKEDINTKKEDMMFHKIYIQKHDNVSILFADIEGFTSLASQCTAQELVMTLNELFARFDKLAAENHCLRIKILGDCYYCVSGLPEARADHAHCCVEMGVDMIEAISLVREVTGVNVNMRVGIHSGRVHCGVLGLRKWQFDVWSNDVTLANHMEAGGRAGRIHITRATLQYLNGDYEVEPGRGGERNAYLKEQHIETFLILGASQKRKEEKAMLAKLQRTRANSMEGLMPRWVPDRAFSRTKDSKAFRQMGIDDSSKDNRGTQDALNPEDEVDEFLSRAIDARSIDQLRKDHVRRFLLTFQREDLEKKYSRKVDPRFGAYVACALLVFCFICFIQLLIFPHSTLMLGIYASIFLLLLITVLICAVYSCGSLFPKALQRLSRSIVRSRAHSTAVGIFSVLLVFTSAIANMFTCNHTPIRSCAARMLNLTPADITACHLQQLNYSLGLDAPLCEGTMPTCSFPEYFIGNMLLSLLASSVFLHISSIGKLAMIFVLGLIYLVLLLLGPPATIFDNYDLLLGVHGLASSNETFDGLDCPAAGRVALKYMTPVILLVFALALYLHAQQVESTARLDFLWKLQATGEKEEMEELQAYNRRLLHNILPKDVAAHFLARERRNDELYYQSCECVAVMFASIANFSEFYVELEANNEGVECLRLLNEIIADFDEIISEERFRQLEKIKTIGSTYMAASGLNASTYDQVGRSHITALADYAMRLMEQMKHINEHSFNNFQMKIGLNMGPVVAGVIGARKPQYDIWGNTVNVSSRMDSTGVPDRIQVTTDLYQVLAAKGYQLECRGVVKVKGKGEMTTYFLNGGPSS
T4 sequence (O60266 whole entry): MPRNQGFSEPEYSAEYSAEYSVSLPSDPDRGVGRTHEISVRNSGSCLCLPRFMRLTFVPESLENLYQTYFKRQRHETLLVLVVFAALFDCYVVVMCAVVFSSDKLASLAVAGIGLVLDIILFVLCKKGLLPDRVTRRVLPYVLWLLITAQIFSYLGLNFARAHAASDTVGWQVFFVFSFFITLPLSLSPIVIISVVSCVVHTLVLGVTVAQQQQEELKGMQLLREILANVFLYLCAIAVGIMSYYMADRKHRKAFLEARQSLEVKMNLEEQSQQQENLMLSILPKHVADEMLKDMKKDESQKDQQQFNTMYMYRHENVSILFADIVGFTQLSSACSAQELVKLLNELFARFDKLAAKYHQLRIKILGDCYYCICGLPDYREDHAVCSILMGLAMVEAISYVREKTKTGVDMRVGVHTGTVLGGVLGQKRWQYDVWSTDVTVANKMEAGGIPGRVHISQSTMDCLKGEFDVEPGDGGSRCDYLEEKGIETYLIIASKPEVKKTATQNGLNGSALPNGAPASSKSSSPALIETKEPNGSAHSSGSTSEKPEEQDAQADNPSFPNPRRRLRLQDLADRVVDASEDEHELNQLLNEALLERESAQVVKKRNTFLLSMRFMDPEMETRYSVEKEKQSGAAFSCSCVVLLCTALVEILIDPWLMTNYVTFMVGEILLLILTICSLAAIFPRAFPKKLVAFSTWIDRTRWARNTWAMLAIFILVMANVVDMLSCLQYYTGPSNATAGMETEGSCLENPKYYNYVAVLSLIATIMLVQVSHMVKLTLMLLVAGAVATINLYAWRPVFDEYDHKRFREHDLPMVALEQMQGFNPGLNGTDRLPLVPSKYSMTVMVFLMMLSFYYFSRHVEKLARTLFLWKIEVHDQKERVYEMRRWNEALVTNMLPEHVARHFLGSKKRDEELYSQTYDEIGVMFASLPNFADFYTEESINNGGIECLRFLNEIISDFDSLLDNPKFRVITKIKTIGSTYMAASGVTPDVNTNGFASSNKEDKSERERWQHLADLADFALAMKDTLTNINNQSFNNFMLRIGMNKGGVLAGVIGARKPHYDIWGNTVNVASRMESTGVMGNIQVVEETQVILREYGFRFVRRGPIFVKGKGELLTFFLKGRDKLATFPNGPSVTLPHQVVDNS
T4 sequence (P63092 whole entry Q227L partner): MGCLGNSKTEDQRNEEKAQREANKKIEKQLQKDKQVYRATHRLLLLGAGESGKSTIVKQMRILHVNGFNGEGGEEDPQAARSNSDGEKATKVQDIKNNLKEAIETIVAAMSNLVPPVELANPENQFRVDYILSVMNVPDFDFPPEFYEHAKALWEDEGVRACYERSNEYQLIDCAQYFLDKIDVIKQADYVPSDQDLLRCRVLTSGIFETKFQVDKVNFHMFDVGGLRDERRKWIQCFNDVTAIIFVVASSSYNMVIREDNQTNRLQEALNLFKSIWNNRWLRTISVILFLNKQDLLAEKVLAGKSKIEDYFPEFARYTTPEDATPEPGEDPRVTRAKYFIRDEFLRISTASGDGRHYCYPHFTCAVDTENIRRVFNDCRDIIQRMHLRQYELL

CCCCCCCCCCCCCCCCCC(=O)O [Stearic acid, Stearic (octadecanoic) acid] was tested, and the “mAC5 activity [%] (100% = 300nM Gsα stimulation)” value (“mAC5 activity [%]” below) (mAC5; 20µM fatty acid concentration) was 73% and 93% and 77%, the “mAC5 activity [%]” value (mAC5; fatty acid 0.5 µM, individual experiments) was 100% and the “mAC5 activity [%]” value (mAC5; fatty acid 1 µM, individual experiments) was 134% and 72%. For the same compound, the “mAC5 activity [%]” value (mAC5; fatty acid 3 µM, individual experiments) was 73% and 80% and 162%, the “mAC5 activity [%]” value (mAC5; fatty acid 6 µM, individual experiments) was 124% and 75% and 108% and 125% and the “mAC5 activity [%]” value (mAC5; fatty acid 10 µM, individual experiments) was 73% and 93% and 77%. The “mAC5 activity [%]” value (mAC5; fatty acid 20 µM, individual experiments) was 80% and 91% and 83%, the “mAC4 activity [%] (100% = 300nM Gsα stimulation); 20µM fatty acid concentration” value (mAC4) was 79% and 60% and 83% and the “mAC8 activity [%] (100% = 300nM Gsα stimulation)” value (mAC8) was 107% and 102%. For the same compound, the “Effect of lipid on 300 nM Gsα-stimulated mAC3” value (mAC3; 20 µM, in words) was “no significant effect; also recorded: inactive”, the “mAC3 activity [%] (100% = 300nM Gsα stimulation)” value (shortened to “mAC3 activity [%]”) (mAC3; fatty acid 0.5 µM) was 100% and the “mAC3 activity [%]” value (mAC3; fatty acid 1 µM) was 121% and 48% and 49% and 110% and 79%. The “mAC3 activity [%]” value (mAC3; fatty acid 3 µM) was 84% and 77% and 52% and 121% and 116%, the “mAC3 activity [%]” value (mAC3; fatty acid 6 µM) was 91% and 103% (2×) and 32% and 75% and the “mAC3 activity [%]” value (mAC3; fatty acid 10 µM) was 69% and 84% and 76% and 71% and 80% and 79%. The “mAC3 activity [%]” value (mAC3; fatty acid 20 µM) was 115% and 83% and 68% and 70% and 65% and 160% and the “mAC6 activity [%] (100% = 300nM Gsα stimulation)” value (mAC6) was 88% and 61% and 94% and 93%.
